A short description of data set [1]: Antiviral activity against wild type HIV1 BH10 infected human MT4 cells assessed as inhibition of virus-induced cytopathogenicity. The class given is functional, cell-based, Human immunodeficiency virus type 1 BH10. As to conditions: Human immunodeficiency virus 1, MT4. Background: Cytopathic effects are the visible damage that an infection or toxin causes in cultured cells.

Data set [2] is described as follows: Antiviral activity against wild type HIV1 BH10 with reverse transcriptase Y181C single mutant infected human MT4 cells assessed as inhibition of virus-induced cytopathogenicity. The data set is classed as functional, cell-based, Human immunodeficiency virus type 1 BH10. As to conditions: Human immunodeficiency virus 1, MT4.
A short description of data set [3]: Antiviral activity against wild type HIV1 BH10 with reverse transcriptase K103N/Y181C double mutant infected human MT4 cells assessed as inhibition of virus-induced cytopathogenicity. The data set is classed as functional, cell-based, Human immunodeficiency virus type 1 BH10. As to conditions: Human immunodeficiency virus 1, MT4.
A short description of data set [4]: Antiviral activity against wild type HIV1 BH10 with reverse transcriptase K103N single mutant infected human MT4 cells assessed as inhibition of virus-induced cytopathogenicity. The class given is functional, cell-based, Human immunodeficiency virus type 1 BH10. As to conditions: Human immunodeficiency virus 1, MT4.
A short description of data set [5]: Metabolic stability of the compound in human hepatocytes assessed as compound remaining after 4 hrs. As to conditions: read-out: Stability. The class given is ADME, cell-based, Hepatocyte.
Data set [6] in a line: Clearance in rat at 5 mg/kg, po. The data set is classed as ADME, organism-based. Also noted: dose 5 mg/kg, route oral. As to conditions: in vivo.
The nature of data set [7]: Metabolic stability of the compound in rat hepatocytes assessed as compound remaining after 4 hrs. The data set is classed as ADME, cell-based, Hepatocyte. To be noted: read-out: Stability.
Data set [8] can be described thus: Metabolic stability of the compound in monkey hepatocytes assessed as compound remaining after 4 hrs. The class given is ADME, cell-based, Macaca mulatta, Hepatocyte. To be noted: rhesus monkey, read-out: Stability.
The nature of data set [9]: Metabolic stability of the compound in dog hepatocytes assessed as compound remaining after 4 hrs. The class given is ADME, cell-based, Canis lupus familiaris, Hepatocyte. As to conditions: read-out: Stability.
Data set [10] can be described thus: Half life in rat at 5 mg/kg, po. The data set is classed as ADME, organism-based. Details: dose 5 mg/kg, route oral. To be noted: in vivo.
Data set [11] can be described thus: Oral bioavailability in rat at 5 mg/kg. The class given is ADME, organism-based. To be noted: in vivo.

SMILES strings stand for the structures.

Here are results for 10 molecules from ChEMBL document CHEMBL1649077, “Synthesis and biological evaluation of aryl-phospho-indole as novel HIV-1 non-nucleoside reverse transcriptase inhibitors” (J Med Chem, 2011).

By EC50 is commonly meant the concentration needed to bring the measured effect to its halfway point. As a reminder, the CL/F is the apparent clearance, not corrected for the fraction that reaches the circulation. As a reminder, the half-life is how long it takes for the measured level to halve.

In the case of `NC(=O)c1[nH]c2ccc(Cl)cc2c1P(=O)(O)c1ccccc1`, in data set [1], the EC50 was above 1250 nM.

For the molecule `CO[P@@](=O)(c1ccccc1)c1c(C(N)=O)[nH]c2ccc(Cl)cc12`, the half-maximal effective concentration (EC50) is above 1250 nM in [2], 182 nM in data set [1], above 1250 nM in data set [3] and above 1250 nM in data set [4].

Turning to `CP(=O)(c1ccccc1)c1c(C(N)=O)[nH]c2ccc(Cl)cc12` (stereo unspecified), the EC50 in data set [2] was 266 nM; in data set [1], 0.8 nM; in [3] it was above 1250 nM; in [4] it was 1380 nM.

Take `NC(=O)c1[nH]c2ccc(Cl)cc2c1P(=O)(OCc1ccccc1)c1ccccc1` (stereo unspecified): the half-maximal effective concentration (EC50) in data set [2] is above 1250 nM; in data set [1], 33.7 nM; in [3] it was above 1250 nM; in data set [4] it was above 1250 nM.

For `CN(C)P(=O)(c1ccccc1)c1c(C(N)=O)[nH]c2ccc(Cl)cc12` (stereo unspecified), the EC50 is 467 nM in [2], 13.9 nM in data set [1], above 1250 nM in data set [3] and above 1250 nM in [4].

As for `CCOP(=O)(c1ccccc1)c1c(C(N)=O)[nH]c2ccc(Cl)cc12` (stereo unspecified), the EC50 in data set [2] was 13.7 nM; in [1], 1.2 nM; in [3], above 1250 nM; in data set [4], 16.4 nM.

For the molecule `COP(=O)(c1ccccc1)c1c(C(N)=O)[nH]c2ccc(Cl)cc12` (racemic), the remaining at 4 h in data set [5] was determined as 99%; in data set [7], 100%; in data set [8], 49%; in data set [9], 100%. The molecule also returned a CL/F in data set [6] of 2.85 mL/min/kg. The 50% effective concentration (EC50) in data set [2] worked out at 10.1 nM; in [1], 0.7 nM; in data set [3], 447 nM; in [4] it was 6.8 nM. The molecule further gave a half-life in data set [10] of 1.19 h. The bioavailability in [11] came out at 107%.

`NC(=O)c1[nH]c2ccc(Cl)cc2c1P(=O)(c1ccccc1)c1ccccc1`: the EC50 in data set [1] was above 1250 nM.

For the molecule `CO[P@](=O)(c1ccccc1)c1c(C(N)=O)[nH]c2ccc(Cl)cc12`, the EC50 is 3.6 nM in data set [2], 0.1 nM in [1], 137 nM in data set [3] and 1.2 nM in data set [4].

Consider `COP(=S)(c1ccccc1)c1c(C(N)=O)[nH]c2ccc(Cl)cc12` (stereo unspecified), for which the EC50 is 41.4 nM in [2], 0.4 nM in data set [1], above 1250 nM in data set [3] and 89.9 nM in [4].
